Test results taken from patent US20040063843A1, “Coating solutions” (Honeywell International, Inc., priority 2002, published 2004).

Legend:
[1] = Surface tension measurement, Nouy ring method; type: physicochemical; conditions: 20 ml aliquot, Kruss Model K 10 ST; liquid carrier tetrafluoropropanol, no coating moiety
Procedure: Samples of coating solution (Examples 8, 9, 10, and 11) were prepared by blending in a vessel a measured volume of a liquid carrier (tetrafluoropropanol) and a fluorocarbon surface tension-reducing agent (1,1,1,3,3-pentafluoropropane, HFC245fa) to give the Vol. % compositions indicated in Table 3, below.
Surface tension was measured using the Nouy ring method and a Kruss Instrument Model K 10 ST.
In a typical determination, a 20 ml aliquot of the liquid to be tested was placed in the instrument and the surface tension was measured by the published procedure described above. Measurements were carried out for neat tetrafluropropanol (a liquid carrier, Table 3, Comparative Example #3), neat 1,1,1,3,3-pentafluropropane (HFC245fa, as a fluorocarbon surface tension-reducing agent, Table 3, Example # 11), and coating solution formulations (sans a coating moiety) comprising mixtures of tetrafluropropanol with 25 Vol. %, 50 Vol. %, and 75 Vol. % 1,1,1,3,3-pentafluropropane (Table 3, Examples 8, 9 and 10 respectively).

[2] = type: physicochemical
Procedure: Coating solvent was prepared by blending in a vessel a measured volume of a liquid carrier (tetrafluoropropanol) and as a surface tension-reducing agent 1,1,1,3,3-pentafluoropropane (HFC245fa) to give a solvent having the constituent volumetric ratios shown in Table I, below.
Solubility was determined by adding dye powder slowly to a weighed 100 ml aliquot of the coating solvent in a vessel. The solvent was stirred to dissolve the dye. When no more dye would dissolve, the dye addition was stopped and the solvent reweighed to determine the amount of dye that had been dissolved in the solvent.

| Molecule | Surface Tension [1] [mN/m] | Dye A Solubility [2] [g/100 ml] | Dye B Solubility [2] [g/100 ml] |
| --- | --- | --- | --- |
| FC(F)CC(F)(F)F [Example # 11, 1,1,1,3,3-pentafluropropane] | 18 |  |  |
| Tetrafluoropropanol [compound 1] |  | 10.7 | 11.3 |
